Laboratory results from patent US6156724A, “Uses of didemnins as immunomodulating agents” (priority 1998, dated 2000).
Like-named read-outs stand apart in the source and are kept apart here. Numbered stars: 1 amine (or outer) side, 2 acyl side, 3 side chain; on linkers, the order of the positions; unused ones are H or OH. Bridge positions count the residues as written; N and C are the ends. Square brackets hold non-standard residues; d marks the D form. Peptide text beside a SMILES is read from it. X1 = CC[C@H](C)[C@@H](N[*:1])[C@@H](O)CC(=O)O[C@H](C(=O)[C@H](C)C(=O)[*:2])C(C)C; NMeY = CN[C@@H](Cc1ccc(O)cc1)C(=O)O; dNMeL = CN[C@H](CC(C)C)C(=O)O; pGlu = O=C1CC[C@@H](C(=O)O)N1; Lac = C[C@H](O)C(=O)O

Key:
Rift Valley fever virus = conditions: mouse, in vivo; cited from earlier work
[1] = test system: concanavalin A-induced lymphoblasts (Con A splenocytes); experiment: Lymphoblast viability (LbV) assay; conditions: Con A-stimulated splenocytes (lymphoblasts), MTT
[2] = test system: murine splenocytes (Balb/c and C57B1/6); experiment: Two-way mixed lymphocyte reaction (MLR) assay;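 also: proliferation read as tritiated thymidine incorporation into newly made DNA after an overnight pulse, expressed as percent of control activity, IC50 interpolated per compound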
[3] = test system: Balb/c splenocytes (resting lymphocytes); experiment: Lymphocyte viability (LcV) assay; type: cell-based, murine; conditions: unstimulated Balb/c splenocytes, MTT
Summary of the method: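 Resting Balb/c splenocytes incubated with compounds under MLR-equivalent conditions, then pulsed overnight with MTT; formazan dissolved in isopropanol and absorbance read at 570 nm. Viability expressed as percent of untreated Balb/c control metabolic activity, with LC50 interpolated.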

[4] = test system: CB6F1 mice grafted with Balb/c splenocytes; experiment: Graft vs host reaction (GVHR) splenomegaly assay; type: in vivo; conditions: for alive day 8 / body weight change day 5 / body weight day 5 (g ± SD) / index (spleen wt. treated/spleen wt. syngenetic injection) / mean group spleen wt. normalized to day 8 body weight: QD 1-7, ip
Experimental: Three representative compounds didemnin M (38), O-pGlu-DB (37), and didemnin B (1)-showing high (37,38) or moderate (1) in vivo immunosuppressive activity were subsequently evaluated in a multidose assay (0.16,0.016, and 0.0016 mg/kg per injection; qd 1-7) for their in vivo immunosuppressive effects on the GVHR splenomegaly assay.
Three didemnins (didemnin B, didemnin M, and pGlu-didemnin B) were evaluated in a modified Simonsen splenomegaly assay. Briefly, an F1 hybrid host animal is grated with immunocompetent spleen cells from the parent strain. The index used to measure the success of the GVHR is splenomegaly (increased spleen weight due to cellular proliferation of grafted lymphocytes). An index>1.3 (graft index) is considered to be a successful graft rejection of the recipient animal. Immunosuppression is considered as a reduction of the graft index.
On day O, CB6F1 female mice, 4 weeks of age, were grated by intraperitoneal (ip) injection of 50×10^5 splenocytes from BALB/c female mice in high-glucose ([…]) Dulbecco's modified Eagles medium. A syngeneic control group (CB6F1 --CB6F1) was similarly prepared and served as the negative control. Grafted mice were divided into treatment groups containing six mice each. Groups were injected ip with test compound (dissolved in vehicle; 1% abs. EtOH in sterile phosphate-buffered saline) at one of three dose levels (0.16, 0.016, and 0.0016 mg/kg per injection) in a multidose assay, cyclophosphamide (200 mg/kg per injection) or vehicle on days 1-7 (qd 1-7). On day 8 all groups were sacrificed, spleens were excised, and a graft index was calculated for each group by the following formula: [formula]

[5] = Balb/c + C57B1/6 splenocytes, 96 h, [3H]thymidine
[6] = read-out: two-way mixed lymphocyte reaction (MLR) suppression MLR, IC50, Balb/c + C57B1/6 splenocytes, 96 h, [3H]thymidine
[7] = 160 μg/kg per injection (highest dose)

Compound | cytotoxicity to lymphocytes LbV, LC50 [1] [nM] | two-way mixed lymphocyte reaction (MLR) suppression MLR, IC50 [2, 5] [ng/mL] | IC50 [2, 6] [nM] | cytoxicity to lymphocytes LcV, LC50 [3] [nM] | cytoxicity to lymphocytes LcV, LC50 ([3]; highest concentration 10 μg/mL) [µg/mL] | alive day 8 ([4]; 0.0016 mg/Kg/day) [%] | body weight change day 5 ([4]; 0.0016 mg/Kg/day) [g] | body weight day 5 (g ± SD) ([4]; 0.0016 mg/Kg/day) [g] | index (spleen wt. treated/spleen wt. syngenetic injection) ([4]; 0.0016 mg/Kg/day) | mean group spleen wt. normalized to day 8 body weight ([4]; 0.0016 mg/Kg/day) | alive day 8 ([4]; 0.016 mg/Kg/day) [%] | body weight change day 5 ([4]; 0.016 mg/Kg/day) [g] | body weight day 5 (g ± SD) ([4]; 0.016 mg/Kg/day) [g] | index (spleen wt. treated/spleen wt. syngenetic injection) ([4]; 0.016 mg/Kg/day) | mean group spleen wt. normalized to day 8 body weight ([4]; 0.016 mg/Kg/day) | alive day 8 ([4]; 0.16 mg/Kg/day) [%] | body weight change day 5 ([4]; 0.16 mg/Kg/day) [g] | body weight day 5 (g ± SD) ([4]; 0.16 mg/Kg/day) [g] | index (spleen wt. treated/spleen wt. syngenetic injection) ([4]; 0.16 mg/Kg/day) | mean group spleen wt. normalized to day 8 body weight ([4]; 0.16 mg/Kg/day) | further results
CC[C@H](C)[C@H]1NC(=O)[C@@H](NC(=O)[C@@H](CC(C)C)N(C)C(=O)[C@@H]2CCCN2C(=O)C(C)O)[C@@H](C)OC(=O)[C@H](Cc2ccc(OC)cc2)N(C)C(=O)[C@@H]2CCCN2C(=O)[C@H](CC(C)C)NC(=O)[C@@H](C)C(=O)[C@H](C(C)C)OC(=O)C[C@@H]1O (stereo partly drawn) [Compound 1, didemnin B] | 0.6 | 0.46 | 0.42 | 6340 | 7.00 | 100 | 1.0 | 18.4 ± 0.8 | 1.91 | 6.1 | 100 | 1.0 | 18.2 ± 0.7 | 1.33 | 4.2 | 100 | -1.4 | 15.6 ± 1.6 | 1.24 | 4.0 | protected Rift Valley fever virus-infected mice (Rift Valley fever virus): 90%; suppression of allogeneically induced splenomegaly response compared to control ([4]; 1.6 μg/kg per injection): not effective; suppression of allogeneically induced splenomegaly response compared to control ([4]; 16 μg/kg per injection): 53%; suppression of allogeneically induced splenomegaly response compared to control ([4]; 160 μg/kg per injection): 66%; toxicity to the animals [4, 7]: neither was toxic
CC[C@H](C)[C@H]1NC(=O)[C@@H](NC(=O)[C@@H](CC(C)C)N(C)C(=O)[C@@H]2CCCN2C(=O)[C@H](C)OC(=O)[C@@H]2CCC(=O)N2)[C@@H](C)OC(=O)[C@H](Cc2ccc(OC)cc2)N(C)C(=O)[C@@H]2CCCN2C(=O)[C@H](CC(C)C)NC(=O)[C@@H](C)C(=O)[C@H](C(C)C)OC(=O)C[C@@H]1O [Compound 37, O-Pyroglutamyldidemnin B] ([pGlu][Lac]P[dNMeL]T[X1]LP[NMeY](Me); ester 5-C) | 0.079 | 0.007 | 0.0053 | > 8200 | > 10 | 100 | 0.4 | 17.4 ± 1.7 | 1.63 | 5.2 | 100 | 0.8 | 17.2 ± 1.5 | 1.76 | 5.6 | 100 | -0.6 | 15.2 ± 1.2 | 1.32 | 4.2 | IC50 ([2]; read-out: MLR IC50): 0.0053 nM; suppression of allogeneically induced splenomegaly response compared to control ([4]; 160 μg/kg per injection): 54%; toxicity to the animals [4, 7]: neither was toxic
CC[C@H](C)[C@H]1NC(=O)[C@@H](NC(=O)[C@@H](CC(C)C)N(C)C(=O)[C@@H]2CCCN2C(=O)[C@H](C)OC(=O)[C@H](CCC(N)=O)NC(=O)[C@@H]2CCC(=O)N2)[C@@H](C)OC(=O)[C@H](Cc2ccc(OC)cc2)N(C)C(=O)[C@@H]2CCCN2C(=O)[C@H](CC(C)C)NC(=O)[C@@H](C)C(=O)[C@H](C(C)C)OC(=O)C[C@@H]1O [Compound 38, Didemnin M] ([pGlu]Q[Lac]P[dNMeL]T[X1]LP[NMeY](Me); ester 6-C) | 0.25 | 0.001 |  | > 7410 | > 10 | 100 | 1.4 | 17.2 ± 1.2 | 1.27 | 4.1 | 100 | -0.2 | 17.8 ± 0.7 | 1.38 | 4.4 | 100 | 1.0 | 16.4 ± 1.0 | 1.54 | 4.9 | suppression of allogeneically induced splenomegaly response compared to control ([4]; 1.6 μg/kg per injection): 61%; toxicity to the animals ([4]; 16 and 160 μg/kg): not toxic
